One assay addresses T1, CDK7 (Homo sapiens, UniProt P50613).
T1 construct: purchased Life Technologies (Adapta kinase assay service)
In words: CDK7 kinase activity, Adapta kinase assay (Life Technologies). Type of assay: biochemical. The note with it: Adapta kinase assay at Life Technologies; 10 μM down to 0.514 nM, 3-fold serial dilutions; read-out: CDK7 Inhibition (IC50). Here is the method: Compounds of the invention were assayed for CDK7 activity at Life Technologies™ (Grand Island, N.Y.) using their commercially available Adapta® kinase assay services. Compounds were tested at concentrations ranging from 10 μM down to 0.514 nM in a series of 3-fold serial dilutions. Details of these assays, including substrates used, are available on the Life Technologies web site (http://www.lifetechnologies.com/us/en/home/life-science/drug-discovery/target-and-lead-identification-and-validation/kinasebiology/kinase-activity-assays.html).

The subject of the next assay is Jurkat cells. In words: Inhibition of proliferation of Jurkat cells (CellTiter-Glo, 72 hour). The class given is cell-based, human. The note with it: 10 μM to 316 pM. Here is the method: Jurkat cells are a cell line established from a human T cell leukemia. Representative compounds of the invention were tested at different concentrations (from 10 μM to 316 pM; 0.5 log serial dilutions) for their ability to inhibit the proliferation of Jurkat cells. Known CDK inhibitors flavopiridol and triptolide were used as positive controls. Cells were grown in RPMI 1640+10% FBS+1% Glutamax. The cells were supplemented with FBS (Life Technologies) and 100 U·mL^− penicillin, 100 μg·mL^− streptomycin (Invitrogen) and cultured at 37° C. in a humidified chamber in the presence of 5% CO2. Proliferation assays were conducted over a 72 hour time period. CellTiter-Glo® (Promega Corporation, Madison, Wis. USA) was used to assess the anti-proliferative effects of the compounds following manufacturer's directions and utilizing the reagents supplied with the CellTiter-Glo® kit. In this table, “A” represents an IC50 of less than 500 nM; “B” an IC50 of between 500 nM and 5 μM; and “C” an IC50 of greater than 5 μM.
In general terms: Cellular ATP, detected with luciferase, serves as a proxy for viable cell number.

A further assay deals with A673 cells. In words: Inhibition of proliferation of A673 cells (CyQUANT, 72 hour). Type of assay: cell-based, human. Particulars: Homo sapiens, 72 hour proliferation. Here is the method:
A673 cells are a cell line derived from human muscle Ewing's sarcoma. Representative compounds of the invention were tested at different concentrations (from 4 μM to 126.4 pM; 0.5 log serial dilutions) for their ability to inhibit the proliferation of A673 cells. Known CDK inhibitors flavopiridol and triptolide were used as positive controls. Cells were grown in Dulbecco's Modified Eagle's Medium, +10% FBS+1 mM Sodium Pyruvate. The cells were cultured at 37° C. in a humidified chamber in the presence of 5% CO2. Proliferation assays were conducted over a 72 hour time period. CyQUANT® (Life Technologies, Chicago, Ill. USA) was used to assess the anti-proliferative effects of the compounds following manufacturer's directions and utilizing the reagents supplied with the CyQUANT® kit. In this table, “A” represents an IC50 of less than 500 nM; “B” an IC50 of between 500 nM and 5 μM; and “C” an IC50 of greater than 5 μM.

Molecules are shown by their SMILES. Structures can show the parent of a compound that is named as a salt.

Experimental findings from patent US10106526B2, “Inhibitors of cyclin-dependent kinase 7 (CDK7)” (SYROS PHARMACEUTICALS, INC., priority 2014, dated 2018) are described below.

As usually defined, the IC50 is the midpoint of a concentration-inhibition curve.

T1 sequence (P50613 whole entry): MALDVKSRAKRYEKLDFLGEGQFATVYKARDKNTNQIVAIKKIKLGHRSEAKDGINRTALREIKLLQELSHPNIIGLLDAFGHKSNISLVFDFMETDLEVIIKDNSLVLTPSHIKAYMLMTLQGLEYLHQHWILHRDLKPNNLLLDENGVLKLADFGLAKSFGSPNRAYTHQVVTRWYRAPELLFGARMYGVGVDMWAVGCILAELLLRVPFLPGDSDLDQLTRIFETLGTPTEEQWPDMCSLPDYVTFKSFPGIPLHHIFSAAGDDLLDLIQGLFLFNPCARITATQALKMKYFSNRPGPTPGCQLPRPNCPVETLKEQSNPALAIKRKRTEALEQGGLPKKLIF
T1 sequence (P51946 whole entry partner): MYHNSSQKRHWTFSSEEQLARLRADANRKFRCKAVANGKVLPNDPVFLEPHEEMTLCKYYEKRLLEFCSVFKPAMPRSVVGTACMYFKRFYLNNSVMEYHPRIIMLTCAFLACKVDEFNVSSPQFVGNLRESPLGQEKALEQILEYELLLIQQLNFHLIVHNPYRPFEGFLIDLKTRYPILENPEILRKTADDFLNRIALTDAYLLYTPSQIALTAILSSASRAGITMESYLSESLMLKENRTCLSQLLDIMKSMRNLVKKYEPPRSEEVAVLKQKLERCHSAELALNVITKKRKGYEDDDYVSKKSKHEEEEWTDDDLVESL
T1 sequence (P51948 whole entry partner): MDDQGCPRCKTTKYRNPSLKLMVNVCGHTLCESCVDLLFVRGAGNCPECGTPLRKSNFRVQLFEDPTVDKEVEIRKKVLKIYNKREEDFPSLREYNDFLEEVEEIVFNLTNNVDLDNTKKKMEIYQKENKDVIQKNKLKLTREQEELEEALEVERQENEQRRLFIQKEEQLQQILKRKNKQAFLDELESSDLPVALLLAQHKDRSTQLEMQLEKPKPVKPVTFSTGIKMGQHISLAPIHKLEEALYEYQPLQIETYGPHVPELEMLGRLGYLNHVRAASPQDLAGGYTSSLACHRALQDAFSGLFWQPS

For `C=CC(=O)NC12CC(C(=O)Nc3cccc(Nc4ncc(Cl)c(-c5c[nH]c6ccccc56)n4)c3)(C1)C2` (racemic) [Compound 108, N-(3-{[5-chloro-4-(1H-indol-3-yl)pyrimidin-2-yl]amino}phenyl)-3-(prop-2-enamido)bicyclo[1.1.1]pentane-1-carboxamide], the IC50 on CDK7 was more than 1000 nM.

Regarding `CN(C)CC=CC(=O)N1CCCC(CNC2CCC(Nc3ncc(Cl)c(-c4c[nH]c5ccccc45)n3)CC2)C1` (racemic) [compound 194], the IC50 in the assay on Jurkat cells is less than 500 nM; at CDK7, 100 to 1000 nM.

On to `C=CC(=O)N1CCCC(CN(C(=O)C=C)[C@H]2CC[C@@H](Nc3ncc(Cl)c(-c4c[nH]c5ccccc45)n3)CC2)C1` (single isomer, unassigned) [191-2], for which the figures for the IC50 in the assay with Jurkat cells and on CDK7 were more than 5000 nM and more than 1000 nM, respectively.

As for `C=CC(=O)N1CCCC(CN[C@H]2CC[C@@H](Nc3ncc(Cl)c(-c4c[nH]c5ccccc45)n3)CC2)C1` (single isomer, unassigned) [compound 195], the IC50 was less than 500 nM in the assay with Jurkat cells and 100 to 1000 nM on CDK7.

Take `CN(C)C/C=C/C(=O)NCCCCC(=O)N1CC[C@@H](Nc2ncc(Cl)c(-c3c[nH]c4ccccc34)n2)C1` [Compound 100, (E)-N-(5-((R)-3-(5-chloro-4-(1H-indol-3-yl)pyrimidin-2-ylamino)pyrrolidin-1-yl)-5-oxopentyl)-4-(dimethylamino)but-2-enamide]: the IC50 with Jurkat cells (Homo sapiens) was 500 to 5000 nM; at CDK7, less than 100 nM.

Regarding `CN(C)C/C=C/C(=O)N[C@H]1CC[C@@H](C(=O)Nc2cccc(Nc3ncc(Cl)c(-c4c[nH]c5ccccc45)n3)c2)CC1` [Compound 101, (Cis,E)-N-(3-(5-chloro-4-(1H-indol-3-yl)pyrimidin-2-ylamino)phenyl)-4-(4-(dimethylamino)but-2-enamido)cyclohexanecarboxamide], the IC50 is more than 5000 nM with Jurkat cells (Homo sapiens) and less than 100 nM at CDK7.

For `CN(C)C/C=C/C(=O)N[C@H]1CC[C@H](C(=O)Nc2cccc(Nc3ncc(Cl)c(-c4c[nH]c5ccccc45)n3)c2)CC1` [Compound 102, (trans,E)-N-(3-(5-chloro-4-(1H-indol-3-yl)pyrimidin-2-ylamino)phenyl)-4-(4-(dimethylamino)but-2-enamido)cyclohexanecarboxamide], the IC50 with Jurkat cells (Homo sapiens) was 500 to 5000 nM; at CDK7, less than 100 nM.

As for `CN(C)C/C=C/C(=O)N1CCC[C@@H](C(=O)Nc2cccc(Nc3ncc(Cl)c(-c4c[nH]c5ccccc45)n3)c2)C1` [Compound 103, (3R,E)-N-(3-(5-chloro-4-(1H-indol-3-yl)pyrimidin-2-ylamino)phenyl)-1-(4-(dimethylamino)but-2-enoyl)piperidine-3-carboxamide], the IC50 with Jurkat cells (Homo sapiens) is 500 to 5000 nM; at CDK7 it was less than 100 nM.

With `CN(C)C/C=C/C(=O)N1CCC[C@H](C(=O)Nc2cccc(Nc3ncc(Cl)c(-c4c[nH]c5ccccc45)n3)c2)C1` [Compound 104, (3S,E)-N-(3-(5-chloro-4-(1H-indol-3-yl)pyrimidin-2-ylamino)phenyl)-1-(4-(dimethylamino)but-2-enoyl)piperidine-3-carboxamide], the IC50 was 500 to 5000 nM in the assay on Jurkat cells (Homo sapiens) and less than 100 nM at CDK7.

Take `CN(C)C/C=C/C(=O)N1CCC(C(=O)Nc2cccc(Nc3ncc(Cl)c(-c4c[nH]c5ccccc45)n3)c2)CC1` [Compound 105, (E)-N-(3-(5-chloro-4-(1H-indol-3-yl)pyrimidin-2-ylamino)phenyl)-1-(4-(dimethylamino)but-2-enoyl)piperidine-4-carboxamide]: the IC50 is 500 to 5000 nM with Jurkat cells (Homo sapiens) and less than 100 nM on CDK7.

As to `CN(C)C/C=C/C(=O)Nc1ccc(C(=O)Nc2cccc(Nc3ncc(Cl)c(-c4c[nH]c5ccccc45)n3)c2)nc1` [Compound 107, (E)-N-(3-(5-chloro-4-(1H-indol-3-yl)pyrimidin-2-ylamino)phenyl)-5-(4-(dimethylamino)but-2-enamido)picolinamide], the IC50 with Jurkat cells (Homo sapiens) is 500 to 5000 nM; at CDK7 it was less than 100 nM.

As for `CN(C)C/C=C/C(=O)NCC(F)(F)C(=O)N[C@H]1CCC[C@@H](Nc2ncc(Cl)c(-c3c[nH]c4ccccc34)n2)C1` [Compound 111, (E)-N-(3-((1S,3R)-3-(5-chloro-4-(1H-indol-3-yl)pyrimidin-2-ylamino)cyclohexlamino)-2,2-difluoro-3-oxopropyl)-4-(dimethylamino)but-2-enamide], the IC50 in the assay on Jurkat cells (Homo sapiens) was less than 500 nM; at CDK7, less than 100 nM.

For the molecule `C=CC(=O)N1CCN(C[C@H]2CCC[C@@H](Nc3ncc(Cl)c(-c4c[nH]c5ccccc45)n3)C2)CC1` [Compound 129, 1-(4-(((1S,3R)-3-((5-chloro-4-(1H-indol-3-yl)pyrimidin-2-yl)amino)cyclohexyl)methyl)piperazin-1-yl)prop-2-en-1-One], the IC50 with A673 cells was less than 500 nM; at CDK7, less than 100 nM.

On to `C=CC(=O)N1CCC(CN2CCC(Nc3ncc(Cl)c(-c4c[nH]c5ccccc45)n3)CC2)CC1` [Compound 141, 1-(4-((4-((5-chloro-4-(1H-indol-3-yl)pyrimidin-2-yl)amino)piperidin-1-yl)methyl)piperidin-1-yl)prop-2-en-1-One], for which the IC50 is less than 500 nM in the assay on Jurkat cells (Homo sapiens) and less than 100 nM on CDK7.

On to `C=CC(=O)N[C@H]1CCC[C@@H](Nc2ncc(Cl)c(-c3c[nH]c4ccccc34)n2)C1` [Compound 170, N-((1S,3R)-3-(5-chloro-4-(1H-indol-3-yl)pyrimidin-2-ylamino)cyclohexyl)acrylamide], for which the concentration for half-maximal inhibition (IC50) is 500 to 5000 nM in the assay with Jurkat cells (Homo sapiens) and less than 100 nM at CDK7.

Take `C=CC(=O)N(C)[C@H]1CCC[C@@H](Nc2ncc(Cl)c(-c3c[nH]c4ccccc34)n2)C1` [Compound 171, N-((1S,3R)-3-(5-chloro-4-(1H-indol-3-yl)pyrimidin-2-ylamino)cyclohexyl)-N-methylacrylamide]: the IC50 was less than 500 nM in the assay on Jurkat cells (Homo sapiens) and less than 100 nM at CDK7.

Regarding `N#Cc1cnc(N[C@@H]2CCC[C@H](NC(=O)c3ccc(N)cn3)C2)nc1-c1c[nH]c2ccccc12` [Compound 1009, 5-amino-N-((1S,3R)-3-(5-cyano-4-(1H-indol-3-yl)pyrimidin-2-ylamino)cyclohexyl)picolinamide], the 50% inhibitory concentration (IC50) at CDK7 was less than 100 nM.

`NCC(F)(F)C(=O)N[C@H]1CCC[C@@H](Nc2ncc(Cl)c(-c3c[nH]c4ccccc34)n2)C1` [Compound 1010, 3-amino-N-((1S,3R)-3-(5-chloro-4-(1H-indol-3-yl)pyrimidin-2-ylamino)cyclohexyl)-2,2-difluoropropanamide]: the IC50 at CDK7 was less than 100 nM.

The molecule `Nc1ccc(C(=O)Nc2cccc(Nc3ncc(Cl)c(-c4c[nH]c5ccccc45)n3)c2)cn1` [Compound 1024, 6-amino-N-(3-(5-chloro-4-(1H-indol-3-yl)pyrimidin-2-ylamino)phenyl)nicotinamide] displayed an IC50 in the assay on Jurkat cells (Homo sapiens) of 500 to 5000 nM.

`Nc1ccc(C(=O)N[C@H]2CCC[C@@H](Nc3ncc(Cl)c(-c4c[nH]c5ccccc45)n3)C2)cn1` [Compound 1025, 6-amino-N-((1S,3R)-3-(5-chloro-4-(1H-indol-3-yl)pyrimidin-2-ylamino)cyclohexyl)nicotinamide] gave an IC50 in the assay on Jurkat cells (Homo sapiens) of 500 to 5000 nM.

Take `Nc1nc(C(=O)N[C@H]2CCC[C@@H](Nc3ncc(Cl)c(-c4c[nH]c5ccccc45)n3)C2)cs1` [Compound 1026, 2-amino-N-((1S,3R)-3-(5-chloro-4-(1H-indol-3-yl)pyrimidin-2-ylamino)cyclohexyl)thiazole-4-carboxamide]: in the assay on Jurkat cells (Homo sapiens), the IC50 fell in the range of 500 to 5000 nM.

As for `Nc1ccc(C(=O)N[C@H]2CCC[C@@H](Nc3ncc(Cl)c(-c4c[nH]c5ccccc45)n3)C2)nn1` [Compound 1027, 6-amino-N-((1S,3R)-3-(5-chloro-4-(1H-indol-3-yl)pyrimidin-2-ylamino)cyclohexyl)pyridazine-3-carboxamide], in the assay on Jurkat cells (Homo sapiens), the half-maximal inhibitory concentration (IC50) lay within 500 to 5000 nM.

In the assay with Jurkat cells (Homo sapiens), `NCCc1cc2ccc(Nc3ncc(Cl)c(-c4c[nH]c5ccccc45)n3)cc2[nH]1` [Compound 1028, 2-(2-aminoethyl)-N-(5-chloro-4-(1H-indol-3-yl)pyrimidin-2-yl)-1H-indol-6-amine.HCl] showed an IC50 of 500 to 5000 nM.

Turning to `CN(C)CCCC(=O)NCCc1cc2ccc(Nc3ncc(Cl)c(-c4c[nH]c5ccccc45)n3)cc2[nH]1` [Compound 1029, N-(2-(6-(5-chloro-4-(1H-indol-3-yl)pyrimidin-2-ylamino)-1H-indol-2-yl)ethyl)-4-(dimethylamino)butanamide], the IC50 with Jurkat cells (Homo sapiens) lay within 500 to 5000 nM.

For the molecule `CN(C)CCCC(=O)Nc1ccc(C(=O)Nc2cccc(Nc3ncc(Cl)c(-c4c[nH]c5ccccc45)n3)c2)nc1` [compound 1023], the IC50 in the assay with Jurkat cells lay within 500 to 5000 nM.
